PubChem BioAssay (NCI)
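96-well plates; 48 h exposure; 5 concentrations. Endpoints by linear interpolation between flanking doses. Not reached: highest tested concentration assigned. The concentration for full growth arrest is given as TGI.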

system: 786-0 renal; assay: NCI-60 cell line screen, 48 h

Compound | TGI
CC(=O)COC(=O)CC(C)=O | > 100 µM
c1ccc(CNc2ccc3[nH]c4cnccc4c3c2)cc1 | 29.3 µM
OC1CC1Sc1ccccc1 (stereo not given) | 42.8 µM
CCOC(=O)C(C(C)=O)C1CC=CC1 (stereo not given) | > 100 µM

system: HOP-62 NSCLC; assay: NCI-60 cell line screen, 48 h

Compound | TGI
COC(=O)C1=C(C(=O)OC)C2(C)OC1C(=O)C21CC1 (stereo not given) | > 100 µM
CC(=O)COC(=O)CC(C)=O | > 100 µM
c1ccc(CNc2ccc3[nH]c4cnccc4c3c2)cc1 | 31.7 µM
OC1CC1Sc1ccccc1 (stereo not given) | > 100 µM
CCOC(=O)C(C(C)=O)C1CC=CC1 (stereo not given) | > 100 µM

system: K-562 leukemia; assay: NCI-60 cell line screen, 48 h

Compound | TGI
COC(=O)C1=C(C(=O)OC)C2(C)OC1C(=O)C21CC1 (stereo not given) | 69.1 µM
CC(=O)COC(=O)CC(C)=O | > 100 µM
c1ccc(CNc2ccc3[nH]c4cnccc4c3c2)cc1 | 36.5 µM
OC1CC1Sc1ccccc1 (stereo not given) | > 100 µM
CCOC(=O)C(C(C)=O)C1CC=CC1 (stereo not given) | > 100 µM

system: SK-OV-3 ovarian; assay: NCI-60 cell line screen, 48 h

Compound | TGI
COC(=O)C1=C(C(=O)OC)C2(C)OC1C(=O)C21CC1 (stereo not given) | > 100 µM
CC(=O)COC(=O)CC(C)=O | > 100 µM
c1ccc(CNc2ccc3[nH]c4cnccc4c3c2)cc1 | 41.5 µM
OC1CC1Sc1ccccc1 (stereo not given) | > 100 µM
CCOC(=O)C(C(C)=O)C1CC=CC1 (stereo not given) | > 100 µM

system: UACC-62 melanoma; assay: NCI-60 cell line screen, 48 h

Compound | TGI
CC(=O)COC(=O)CC(C)=O | > 100 µM
c1ccc(CNc2ccc3[nH]c4cnccc4c3c2)cc1 | 34 µM
OC1CC1Sc1ccccc1 (stereo not given) | > 100 µM
CCOC(=O)C(C(C)=O)C1CC=CC1 (stereo not given) | > 100 µM

system: SNB-75 CNS; assay: NCI-60 cell line screen, 48 h

Compound | TGI
COC(=O)C1=C(C(=O)OC)C2(C)OC1C(=O)C21CC1 (stereo not given) | 99.7 µM
CC(=O)COC(=O)CC(C)=O | > 100 µM
c1ccc(CNc2ccc3[nH]c4cnccc4c3c2)cc1 | 19.8 µM
OC1CC1Sc1ccccc1 (stereo not given) | > 100 µM
CCOC(=O)C(C(C)=O)C1CC=CC1 (stereo not given) | > 100 µM

system: A498 renal; assay: NCI-60 cell line screen, 48 h

Compound | TGI
c1ccc(CNc2ccc3[nH]c4cnccc4c3c2)cc1 | 28.6 µM
OC1CC1Sc1ccccc1 (stereo not given) | > 100 µM

system: OVCAR-8 ovarian; assay: NCI-60 cell line screen, 48 h

Compound | TGI
COC(=O)C1=C(C(=O)OC)C2(C)OC1C(=O)C21CC1 (stereo not given) | 52.8 µM
CC(=O)COC(=O)CC(C)=O | > 100 µM
c1ccc(CNc2ccc3[nH]c4cnccc4c3c2)cc1 | 36.5 µM
OC1CC1Sc1ccccc1 (stereo not given) | 92.7 µM
CCOC(=O)C(C(C)=O)C1CC=CC1 (stereo not given) | > 100 µM

system: NCI-H23 lung; assay: NCI-60 cell line screen, 48 h

Compound | TGI
COC(=O)C1=C(C(=O)OC)C2(C)OC1C(=O)C21CC1 (stereo not given) | 51.2 µM
CC(=O)COC(=O)CC(C)=O | > 100 µM
c1ccc(CNc2ccc3[nH]c4cnccc4c3c2)cc1 | 32.3 µM
OC1CC1Sc1ccccc1 (stereo not given) | > 100 µM

system: HCT-15 colon; assay: NCI-60 cell line screen, 48 h

Compound | TGI
COC(=O)C1=C(C(=O)OC)C2(C)OC1C(=O)C21CC1 (stereo not given) | 44.6 µM
CC(=O)COC(=O)CC(C)=O | > 100 µM
c1ccc(CNc2ccc3[nH]c4cnccc4c3c2)cc1 | 39.1 µM
OC1CC1Sc1ccccc1 (stereo not given) | > 100 µM
CCOC(=O)C(C(C)=O)C1CC=CC1 (stereo not given) | > 100 µM

system: SK-MEL-28 melanoma; assay: NCI-60 cell line screen, 48 h

Compound | TGI
CC(=O)COC(=O)CC(C)=O | > 100 µM
c1ccc(CNc2ccc3[nH]c4cnccc4c3c2)cc1 | 27.1 µM
OC1CC1Sc1ccccc1 (stereo not given) | 57.3 µM
CCOC(=O)C(C(C)=O)C1CC=CC1 (stereo not given) | > 100 µM

system: SN12C renal; assay: NCI-60 cell line screen, 48 h

Compound | TGI
COC(=O)C1=C(C(=O)OC)C2(C)OC1C(=O)C21CC1 (stereo not given) | 43.4 µM
CC(=O)COC(=O)CC(C)=O | > 100 µM
c1ccc(CNc2ccc3[nH]c4cnccc4c3c2)cc1 | 33.3 µM
OC1CC1Sc1ccccc1 (stereo not given) | 61.7 µM
CCOC(=O)C(C(C)=O)C1CC=CC1 (stereo not given) | > 100 µM

system: NCI-H522 lung; assay: NCI-60 cell line screen, 48 h

Compound | TGI
COC(=O)C1=C(C(=O)OC)C2(C)OC1C(=O)C21CC1 (stereo not given) | 25.9 µM
CC(=O)COC(=O)CC(C)=O | > 100 µM
c1ccc(CNc2ccc3[nH]c4cnccc4c3c2)cc1 | 29.1 µM
OC1CC1Sc1ccccc1 (stereo not given) | 39.8 µM

system: HOP-92 NSCLC; assay: NCI-60 cell line screen, 48 h

Compound | TGI
c1ccc(CNc2ccc3[nH]c4cnccc4c3c2)cc1 | 30.8 µM
OC1CC1Sc1ccccc1 (stereo not given) | > 100 µM
CCOC(=O)C(C(C)=O)C1CC=CC1 (stereo not given) | > 100 µM

system: COLO 205 colon; assay: NCI-60 cell line screen, 48 h

Compound | TGI
COC(=O)C1=C(C(=O)OC)C2(C)OC1C(=O)C21CC1 (stereo not given) | 56.5 µM
CC(=O)COC(=O)CC(C)=O | > 100 µM
c1ccc(CNc2ccc3[nH]c4cnccc4c3c2)cc1 | 31 µM
OC1CC1Sc1ccccc1 (stereo not given) | > 100 µM
CCOC(=O)C(C(C)=O)C1CC=CC1 (stereo not given) | > 100 µM

system: M19-MEL melanoma; assay: NCI-60 cell line screen, 48 h

Compound | TGI
COC(=O)C1=C(C(=O)OC)C2(C)OC1C(=O)C21CC1 (stereo not given) | > 100 µM
CC(=O)COC(=O)CC(C)=O | > 100 µM
c1ccc(CNc2ccc3[nH]c4cnccc4c3c2)cc1 | 36.3 µM
OC1CC1Sc1ccccc1 (stereo not given) | > 100 µM

system: HCT-116 colon; assay: NCI-60 cell line screen, 48 h

Compound | TGI
COC(=O)C1=C(C(=O)OC)C2(C)OC1C(=O)C21CC1 (stereo not given) | 43.4 µM
CC(=O)COC(=O)CC(C)=O | > 100 µM
c1ccc(CNc2ccc3[nH]c4cnccc4c3c2)cc1 | 33.2 µM
OC1CC1Sc1ccccc1 (stereo not given) | 62.9 µM
CCOC(=O)C(C(C)=O)C1CC=CC1 (stereo not given) | > 100 µM

system: MALME-3M melanoma; assay: NCI-60 cell line screen, 48 h

Compound | TGI
COC(=O)C1=C(C(=O)OC)C2(C)OC1C(=O)C21CC1 (stereo not given) | 70.6 µM
CC(=O)COC(=O)CC(C)=O | > 100 µM
c1ccc(CNc2ccc3[nH]c4cnccc4c3c2)cc1 | 35.8 µM
OC1CC1Sc1ccccc1 (stereo not given) | > 100 µM
CCOC(=O)C(C(C)=O)C1CC=CC1 (stereo not given) | > 100 µM

system: DMS 114 small cell lung; assay: NCI-60 cell line screen, 48 h

Compound | TGI
COC(=O)C1=C(C(=O)OC)C2(C)OC1C(=O)C21CC1 (stereo not given) | 42.9 µM
CC(=O)COC(=O)CC(C)=O | > 100 µM
c1ccc(CNc2ccc3[nH]c4cnccc4c3c2)cc1 | 32.1 µM
OC1CC1Sc1ccccc1 (stereo not given) | 74.4 µM
CCOC(=O)C(C(C)=O)C1CC=CC1 (stereo not given) | > 100 µM

system: MOLT-4 leukemia; assay: NCI-60 cell line screen, 48 h

Compound | TGI
COC(=O)C1=C(C(=O)OC)C2(C)OC1C(=O)C21CC1 (stereo not given) | 44.9 µM
CC(=O)COC(=O)CC(C)=O | > 100 µM
c1ccc(CNc2ccc3[nH]c4cnccc4c3c2)cc1 | 36.9 µM
OC1CC1Sc1ccccc1 (stereo not given) | 91.7 µM
CCOC(=O)C(C(C)=O)C1CC=CC1 (stereo not given) | > 100 µM

system: CAKI-1 renal; assay: NCI-60 cell line screen, 48 h

Compound | TGI
COC(=O)C1=C(C(=O)OC)C2(C)OC1C(=O)C21CC1 (stereo not given) | 44.1 µM
CC(=O)COC(=O)CC(C)=O | > 100 µM
c1ccc(CNc2ccc3[nH]c4cnccc4c3c2)cc1 | 30.4 µM
OC1CC1Sc1ccccc1 (stereo not given) | > 100 µM
CCOC(=O)C(C(C)=O)C1CC=CC1 (stereo not given) | > 100 µM

system: SR leukemia; assay: NCI-60 cell line screen, 48 h

Compound | TGI
COC(=O)C1=C(C(=O)OC)C2(C)OC1C(=O)C21CC1 (stereo not given) | 44.6 µM
CC(=O)COC(=O)CC(C)=O | > 100 µM

system: UACC-257 melanoma; assay: NCI-60 cell line screen, 48 h

Compound | TGI
COC(=O)C1=C(C(=O)OC)C2(C)OC1C(=O)C21CC1 (stereo not given) | > 100 µM
CC(=O)COC(=O)CC(C)=O | > 100 µM
c1ccc(CNc2ccc3[nH]c4cnccc4c3c2)cc1 | 31.4 µM
OC1CC1Sc1ccccc1 (stereo not given) | > 100 µM
CCOC(=O)C(C(C)=O)C1CC=CC1 (stereo not given) | > 100 µM

system: KM12 colon; assay: NCI-60 cell line screen, 48 h

Compound | TGI
COC(=O)C1=C(C(=O)OC)C2(C)OC1C(=O)C21CC1 (stereo not given) | > 100 µM
CC(=O)COC(=O)CC(C)=O | > 100 µM
c1ccc(CNc2ccc3[nH]c4cnccc4c3c2)cc1 | 31.1 µM
OC1CC1Sc1ccccc1 (stereo not given) | > 100 µM
CCOC(=O)C(C(C)=O)C1CC=CC1 (stereo not given) | > 100 µM

system: ACHN renal; assay: NCI-60 cell line screen, 48 h

Compound | TGI
COC(=O)C1=C(C(=O)OC)C2(C)OC1C(=O)C21CC1 (stereo not given) | 41.6 µM
CC(=O)COC(=O)CC(C)=O | > 100 µM
c1ccc(CNc2ccc3[nH]c4cnccc4c3c2)cc1 | 29 µM
OC1CC1Sc1ccccc1 (stereo not given) | > 100 µM
CCOC(=O)C(C(C)=O)C1CC=CC1 (stereo not given) | > 100 µM

system: UO-31 renal; assay: NCI-60 cell line screen, 48 h

Compound | TGI
COC(=O)C1=C(C(=O)OC)C2(C)OC1C(=O)C21CC1 (stereo not given) | > 100 µM
CC(=O)COC(=O)CC(C)=O | > 100 µM
c1ccc(CNc2ccc3[nH]c4cnccc4c3c2)cc1 | 29.4 µM
OC1CC1Sc1ccccc1 (stereo not given) | 33.6 µM
CCOC(=O)C(C(C)=O)C1CC=CC1 (stereo not given) | > 100 µM

system: LOX IMVI melanoma; assay: NCI-60 cell line screen, 48 h

Compound | TGI
COC(=O)C1=C(C(=O)OC)C2(C)OC1C(=O)C21CC1 (stereo not given) | 45.3 µM
CC(=O)COC(=O)CC(C)=O | > 100 µM
c1ccc(CNc2ccc3[nH]c4cnccc4c3c2)cc1 | 33.5 µM
OC1CC1Sc1ccccc1 (stereo not given) | 71.1 µM
CCOC(=O)C(C(C)=O)C1CC=CC1 (stereo not given) | > 100 µM

system: NCI-H460 lung; assay: NCI-60 cell line screen, 48 h

Compound | TGI
COC(=O)C1=C(C(=O)OC)C2(C)OC1C(=O)C21CC1 (stereo not given) | 63.5 µM
CC(=O)COC(=O)CC(C)=O | > 100 µM
c1ccc(CNc2ccc3[nH]c4cnccc4c3c2)cc1 | 34.1 µM
OC1CC1Sc1ccccc1 (stereo not given) | > 100 µM
CCOC(=O)C(C(C)=O)C1CC=CC1 (stereo not given) | > 100 µM

system: SK-MEL-2 melanoma; assay: NCI-60 cell line screen, 48 h

Compound | TGI
COC(=O)C1=C(C(=O)OC)C2(C)OC1C(=O)C21CC1 (stereo not given) | > 100 µM
CC(=O)COC(=O)CC(C)=O | > 100 µM
c1ccc(CNc2ccc3[nH]c4cnccc4c3c2)cc1 | 33.1 µM
OC1CC1Sc1ccccc1 (stereo not given) | > 100 µM
CCOC(=O)C(C(C)=O)C1CC=CC1 (stereo not given) | > 100 µM

system: SK-MEL-5 melanoma; assay: NCI-60 cell line screen, 48 h

Compound | TGI
COC(=O)C1=C(C(=O)OC)C2(C)OC1C(=O)C21CC1 (stereo not given) | > 100 µM
c1ccc(CNc2ccc3[nH]c4cnccc4c3c2)cc1 | 30.2 µM
OC1CC1Sc1ccccc1 (stereo not given) | > 100 µM
CCOC(=O)C(C(C)=O)C1CC=CC1 (stereo not given) | > 100 µM
